From PubChem BioAssay AID256 (DTP/NCI, 2004)
Several values for one entry are separate records, joined by “and”; a condition that tells them apart may be missing. Identical values can stand only once. Toxic doses and inconclusive results are not listed. The calls were made as follows: active = survival T/C of 150% or more; inactive = T/C below 125% in these data.

Tested on: CD2F1 mice, L1210 leukemia ip, survival T/C
Test: NCI In Vivo Anticancer Drug Screen. Data for tumor model L1210 Leukemia (intraperitoneal) in CD2F1 (CDF1) mice
Details: endpoint: mean survival time, higher = longer survival
Outline: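 Implant tumor; dose compound or vehicle; measure endpoint in both groups; report treated divided by control.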

[1] = dose: 100.0 mg/kg/injection, schedule: Q04DX003 (ip), vehicle: saline with Tween-80
[2] = dose: 200.0 mg/kg/injection, schedule: Q04DX003 (ip), vehicle: saline with Tween-80
[3] = dose: 400.0 mg/kg/injection, schedule: Q04DX003 (ip), vehicle: saline with Tween-80
[4] = dose: 100.0 mg/kg/injection, schedule: Q01DX009 (ip), vehicle: saline with Tween-80

Measured: T/C

CN(C)C(=S)SCC(=O)O
inactive: dose: 100.0 mg/kg/injection, schedule: Q04DX003 (ip), vehicle: saline 95 % of control | dose: 200.0 mg/kg/injection, schedule: Q04DX003 (ip), vehicle: saline 96 % of control | dose: 400.0 mg/kg/injection, schedule: Q04DX003 (ip), vehicle: saline 102 % of control

Nc1cc(=O)[nH]c(=S)[nH]1.[Pt]
inactive: dose: 3.13 mg/kg/injection, schedule: Q04DX003 (ip), vehicle: distilled water + Tween-80 105 % of control | dose: 6.25 mg/kg/injection, schedule: Q04DX003 (ip), vehicle: distilled water + Tween-80 100 % of control | dose: 12.5 mg/kg/injection, schedule: Q04DX003 (ip), vehicle: distilled water + Tween-80 101 % of control | dose: 25.0 mg/kg/injection, schedule: Q04DX003 (ip), vehicle: distilled water + Tween-80 103 % of control | dose: 50.0 mg/kg/injection, schedule: Q04DX003 (ip), vehicle: distilled water + Tween-80 101 % of control | dose: 100.0 mg/kg/injection, schedule: Q04DX003 (ip), vehicle: distilled water + Tween-80 99 % of control | dose: 200.0 mg/kg/injection, schedule: Q04DX003 (ip), vehicle: distilled water + Tween-80 94 % of control

O=C(O)c1ccc(Nc2c3ccccc3nc3ccccc23)cc1
inactive: dose: 75.0 mg/kg/injection, schedule: Q01DX001 (ip), vehicle: Klucel (hydroxypropylcellulose) (HPC) 121 % of control | dose: 88.0 mg/kg/injection, schedule: Q01DX001 (ip), vehicle: Klucel (hydroxypropylcellulose) (HPC) 119 % of control | dose: 300.0 mg/kg/injection, schedule: Q04DX003 (ip), vehicle: Klucel (hydroxypropylcellulose) (HPC) 118 % of control
active: dose: 44.0 mg/kg/injection, schedule: Q01DX009 (ip), vehicle: Klucel (hydroxypropylcellulose) (HPC) 170 % of control and 179 % of control | dose: 66.0 mg/kg/injection, schedule: Q01DX009 (ip), vehicle: Klucel (hydroxypropylcellulose) (HPC) 207 % of control and 225 % of control | dose: 75.0 mg/kg/injection, schedule: Q04DX003 (ip), vehicle: Klucel (hydroxypropylcellulose) (HPC) 154 % of control | dose: 100.0 mg/kg/injection, schedule: Q01DX009 (ip), vehicle: Klucel (hydroxypropylcellulose) (HPC) 167 % of control and 184 % of control | dose: 100.0 mg/kg/injection, schedule: Q04DX003 (ip), vehicle: Klucel (hydroxypropylcellulose) (HPC) 162 % of control | dose: 133.0 mg/kg/injection, schedule: Q04DX002 (ip), vehicle: Klucel (hydroxypropylcellulose) (HPC) 167 % of control | dose: 150.0 mg/kg/injection, schedule: Q04DX002 (ip), vehicle: Klucel (hydroxypropylcellulose) (HPC) 166 % of control | dose: 150.0 mg/kg/injection, schedule: Q04DX003 (ip), vehicle: Klucel (hydroxypropylcellulose) (HPC) 172 % of control and 223 % of control | dose: 200.0 mg/kg/injection, schedule: Q04DX002 (ip), vehicle: Klucel (hydroxypropylcellulose) (HPC) 223 % of control | dose: 225.0 mg/kg/injection, schedule: Q04DX003 (ip), vehicle: Klucel (hydroxypropylcellulose) (HPC) 301 % of control | dose: 300.0 mg/kg/injection, schedule: Q01DX001 (ip), vehicle: Klucel (hydroxypropylcellulose) (HPC) 171 % of control and 201 % of control | dose: 300.0 mg/kg/injection, schedule: Q04DX002 (ip), vehicle: Klucel (hydroxypropylcellulose) (HPC) 212 % of control and 293 % of control | dose: 450.0 mg/kg/injection, schedule: Q04DX002 (ip), vehicle: Klucel (hydroxypropylcellulose) (HPC) 225 % of control

NCC(O)c1ccc(O)c(O)c1 (stereo not given)
inactive: dose: 0.5 mg/kg/injection, schedule: Q01DX009 (ip), vehicle: saline 98 % of control | dose: 0.75 mg/kg/injection, schedule: Q01DX001 (ip), vehicle: saline 106 % of control | dose: 1.0 mg/kg/injection, schedule: Q01DX009 (ip), vehicle: saline 109 % of control | dose: 1.5 mg/kg/injection, schedule: Q01DX001 (ip), vehicle: saline 98 % of control | dose: 2.0 mg/kg/injection, schedule: Q01DX009 (ip), vehicle: saline 98 % of control | dose: 3.0 mg/kg/injection, schedule: Q01DX001 (ip), vehicle: saline 101 % of control | dose: 4.0 mg/kg/injection, schedule: Q01DX009 (ip), vehicle: saline 113 % of control | dose: 6.0 mg/kg/injection, schedule: Q01DX001 (ip), vehicle: saline 104 % of control | dose: 8.0 mg/kg/injection, schedule: Q01DX009 (ip), vehicle: saline 100 % of control | dose: 12.0 mg/kg/injection, schedule: Q01DX001 (ip), vehicle: saline 100 % of control

CCc1cc(C)cc(OC(=O)Nc2cccc(Cl)c2)c1
inactive: [1] 88 % of control | [2] 92 % of control | [3] 92 % of control

CN(CCC#N)Cc1cc(C(C)(C)C)cc(-c2ccccc2)c1O
inactive: [4] 90 % of control | dose: 200.0 mg/kg/injection, schedule: Q01DX009 (ip), vehicle: saline with Tween-80 90 % of control

N/N=C1\CC2C3CC4(OCCO4)C4C3CC2C14 (stereo not given)
inactive: dose: 75.0 mg/kg/injection, schedule: Q01DX001 (ip), vehicle: saline 102 % of control | dose: 150.0 mg/kg/injection, schedule: Q01DX001 (ip), vehicle: saline 103 % of control

O=c1[nH]c(=S)nc2nc[nH]n12
inactive: dose: 12.5 mg/kg/injection, schedule: Q01DX001 (ip), vehicle: carboxymethylcellulose (CMC) 97 % of control | dose: 25.0 mg/kg/injection, schedule: Q01DX001 (ip), vehicle: carboxymethylcellulose (CMC) 100 % of control | dose: 50.0 mg/kg/injection, schedule: Q01DX001 (ip), vehicle: carboxymethylcellulose (CMC) 104 % of control | dose: 100.0 mg/kg/injection, schedule: Q01DX001 (ip), vehicle: carboxymethylcellulose (CMC) 97 % of control | dose: 200.0 mg/kg/injection, schedule: Q01DX001 (ip), vehicle: carboxymethylcellulose (CMC) 97 % of control

CCCCCCCCCCCC[n+]1cccc2ccccc21
inactive: dose: 0.35 mg/kg/injection, schedule: Q01DX009 (ip), vehicle: saline 106 % of control | dose: 0.7 mg/kg/injection, schedule: Q01DX009 (ip), vehicle: saline 111 % of control | dose: 1.4 mg/kg/injection, schedule: Q01DX009 (ip), vehicle: saline 117 % of control

O=C(O)C(Br)(Br)Br.[Ag]
inactive: [1] 92 % of control | [2] 89 % of control | [3] 97 % of control

COC(=O)c1cccc(O)c1O
inactive: dose: 100.0 mg/kg/injection, schedule: Q04DX002 (ip), vehicle: other 98 % of control | dose: 200.0 mg/kg/injection, schedule: Q04DX002 (ip), vehicle: other 92 % of control | dose: 400.0 mg/kg/injection, schedule: Q04DX002 (ip), vehicle: other 95 % of control

O=[N+]([O-])O.O=[N+]([O-])O.[Cu].c1ccc(CN2CCN(Cc3ccccc3)CCN(Cc3ccccc3)CCN(Cc3ccccc3)CC2)cc1
inactive: dose: 6.25 mg/kg/injection, schedule: Q01DX001 (ip), vehicle: Klucel (hydroxypropylcellulose) (HPC) 91 % of control | dose: 12.5 mg/kg/injection, schedule: Q01DX001 (ip), vehicle: Klucel (hydroxypropylcellulose) (HPC) 94 % of control | dose: 25.0 mg/kg/injection, schedule: Q01DX001 (ip), vehicle: Klucel (hydroxypropylcellulose) (HPC) 108 % of control | dose: 50.0 mg/kg/injection, schedule: Q01DX001 (ip), vehicle: Klucel (hydroxypropylcellulose) (HPC) 100 % of control

NCCS/C=C(\Br)C(=O)OCc1ccc(Br)cc1
inactive: [1] 96 % of control | [2] 98 % of control

COc1ccc(CC2=NCCN2)cc1
inactive: dose: 25.0 mg/kg/injection, schedule: Q01DX009 (ip), vehicle: saline with Tween-80 98 % of control | dose: 50.0 mg/kg/injection, schedule: Q01DX009 (ip), vehicle: saline with Tween-80 98 % of control | [4] 98 % of control

CCCCOC(=O)c1ccccc1C(=O)O.CCCCOC(=O)c1ccccc1C(=O)O.[Cu+2]
inactive: dose: 6.25 mg/kg/injection, schedule: Q04DX003 (ip), vehicle: saline with Tween-80 91 % of control | dose: 12.5 mg/kg/injection, schedule: Q04DX003 (ip), vehicle: saline with Tween-80 95 % of control | dose: 25.0 mg/kg/injection, schedule: Q04DX003 (ip), vehicle: saline with Tween-80 93 % of control

N#CS.[Co+3].[NH-]CC[NH-].[NH-]CC[NH-].[NH-]CC[SH2+]
inactive: dose: 100.0 mg/kg/injection, schedule: Q04DX002 (ip), vehicle: saline 112 % of control | dose: 200.0 mg/kg/injection, schedule: Q04DX002 (ip), vehicle: saline 104 % of control | dose: 400.0 mg/kg/injection, schedule: Q04DX002 (ip), vehicle: saline 108 % of control

Clc1ccc(C[n+]2ccccc2)cc1Cl
inactive: dose: 5.0 mg/kg/injection, schedule: Q01DX009 (ip), vehicle: saline 98 % of control | dose: 10.0 mg/kg/injection, schedule: Q01DX009 (ip), vehicle: saline 104 % of control | dose: 10.0 mg/kg/injection, schedule: Q04DX003 (ip), vehicle: saline 100 % of control | dose: 20.0 mg/kg/injection, schedule: Q01DX009 (ip), vehicle: saline 98 % of control | dose: 20.0 mg/kg/injection, schedule: Q04DX003 (ip), vehicle: saline 94 % of control

COC(=O)C1(C)CCCC2(C)C1CCC13OCC(CC21)C1(C(C)C)OC31 (stereo not given)
inactive: [1] 101 % of control | [2] 100 % of control | [3] 95 % of control
